The values that follow come from publication PMC12787479, “Steam Explosion as a Green Pretreatment Strategy to Enhance Total Phenolics Release and Biological Activities in Potentilla discolor Bunge Stems” (Molecules, 2025).

Marks after values point to notes of the source that are not given here.

Holding throughout (format): biochemical
The nature of assay [1]: FRAP reduction assay (ferric reducing antioxidant power). The following applies: absorbance at 700 nm at a concentration of 600 μg/mL. The procedure: Extraction solutions of PDB stems at 0.4, 0.6, 0.8, 1.0, or 1.2 mg/mL (0.1 mL each) were mixed with an equal volume (0.1 mL) of 30 μmol/mL K3[Fe(CN)6] solution (1:1, v/v) and incubated at 50 °C for 20 min. Then, 0.2 mL of 10% (w/v) trichloroacetic acid (TCA) solution was added, and the resulting mixture was defined as solution A. Finally, 0.1 mL of solution A was mixed with 0.1 mL of 3.4 μmol/mL FeCl3 solution, and the absorbance of the mixture was measured at 700 nm. […] All experiments were performed in triplicate, and results are expressed as mean ± SD.

Assay [2] can be described thus: ABTS free radical scavenging assay. To be noted: extract obtained under optimized extraction conditions; 30 min dark, 734 nm. How it is done: The solution was then diluted fivefold before use. […] For standard curve construction, ascorbic acid solutions at concentrations of 2, 4, 8, 15, 25, and 50 μg/mL were treated in the same manner. All experiments were performed in triplicate, and results were expressed as mean ± SD. The absorbance values were measured at 734 nm, and the scavenging rate was calculated using Equation (1). […] All data were represented as mean ± standard deviation (SD) and the significant statistical differences was determined by a one-way ANOVA test using SPSS version 22.0. Different lowercase letters were regarded as significant differences (p < 0.05).

The nature of assay [3]: DPPH free radical scavenging assay. To be noted: extract obtained under optimized extraction conditions; 25 °C, 30 min, 517 nm. The procedure: DPPH ethanol solution (0.12 μmol/mL, 0.1 mL) was mixed with 0.1 mL different concentrations of PDB stem solutions (10, 25, 50, 75, and 100 μg/mL). Incubation was carried out in a dark environment at 25 °C for 30 min. […] The absorbance values were measured at 517 nm using an enzyme meter. All experiments were performed in triplicate, and results are expressed as mean ± standard deviation (SD). The calculation formula was as follows.(3) Radical scavenging rate %=[…]×100% where Ac was the absorbance of blank group; As was the absorbance of PDB stem group, respectively. […] All data were represented as mean ± standard deviation (SD) and the significant statistical differences was determined by a one-way ANOVA test using SPSS version 22.0. Different lowercase letters were regarded as significant differences (p < 0.05).

`O=C1O[C@H]([C@@H](O)CO)C(O)=C1O` [Ascorbic acid]: the “FRAP (A700, 600 μg/mL)” value in assay [1] is recorded as 3.17 ± 0.05 ^a; in assay [1] (listed as ascorbic acid), 3.17 ± 0.05. For the same molecule, the “ABTS·IC50” value in assay [2] was 20.71 ± 0.42 ^a μg/mL. For the same molecule, in assay [3], the “DPPH·IC50” value is given as 3.47 ± 0.02 ^a μg/mL.
